Measured values reported in patent US20050250801A1, “Method of treating cancer with azaspirane compositions” (priority 2003, published 2005).
Read-outs that look alike come from different tables or passages of the source.

Experiments:
Format in all cases: cell-based
CaCo-2 cells = assay: Inhibition of proliferation of CaCo-2 cells (WST-1, Example 8); conditions: Homo sapiens, 12 hours
Procedure: The effect of N,N,-diethyl-8,8-dipropyl-2-azaspiro[4,5]decane-2-propanamine dimaleate (Compound 1) and other analogs (structures shown in Table 7) on proliferation of CaCo-2, a human colon carcinoma cell line, were evaluated in the following manner. Cell proliferation was measured by WST-1 dye conversion to Formazan assay using a proliferation kit from BioVision, CA. The procedure used was essentially the same as described in the manufacture's instructions. Briefly, cells were grown for 7 days until they formed semi-confluent monolayers. On day 7, cells were trypsinized and re-suspended in 96-well plates at a concentration of approximately 50,000 cells/well. […] A solution of 10 μl of WST-1 dye per well was added and plates were read after 4 hours at 440 and 600 nm using an ELISA plate reader. The absorbance at 440-600 nm is directly proportion to the number of proliferating cells. All samples were measured in duplicate and results were expressed as an average of two determinations.

A549/ATCC = assay: NCI in vitro SRB assay, Non-Small Cell Lung Cancer; conditions: for CC50 / GI50: Homo sapiens
Procedure: (§1) An in vitro assay which tested the ability of N,N,-diethyl-8,8-dipropyl-2-azaspiro[4,5]decane-2-propanamine dimaleate (Compound 1) to inhibit the growth of known cancer cell lines was performed by the National Cancer Institute in accordance with standard procedures. See: Lin, Z. X., Hoult, J. R., and Raman, A. Sulphorhodamine B assay for measuring proliferation of a pigmented melanocyte cell line and its application to the evaluation of crude drugs used in the treatment of vitiligo. J Ethnopharmacol. 66: 141-150, 1999. Briefly, selected tumor cell lines were cultured in media containing five different concentrations of Compound 1. After 48 hours of continuous exposure, a sulforhodamine B (SRB) assay was used to estimate cell viability or growth via optical measurements.
(§2) From the measurements, the following values were determined: 1) the concentration of Compound 1 at which a tumor cell growth inhibition of 50% (relative to control) occurs (GI50), 2) the concentration of Compound 1 at which no growth occurs (total growth inhibition, TGI), and 3) the concentration of Compound 1 at which the […] (LC 50). […] FIG. 6 illustrates, graphically, tumor cell growth as a function of Compound 1 concentration of the scanned tumor cell lines.

HOP-62 = assay: NCI in vitro SRB assay, Non-Small Cell Lung Cancer; conditions: for CC50 / GI50: Homo sapiens
Procedure: as §1, §2

NCI-H23 = assay: NCI in vitro SRB assay, Non-Small Cell Lung Cancer; conditions: for CC50 / GI50: Homo sapiens
Procedure: as §1, §2

NCI-H460 = assay: NCI in vitro SRB assay, Non-Small Cell Lung Cancer; conditions: for CC50 / GI50: Homo sapiens
Procedure: as §1, §2

NCI-H522 = assay: NCI in vitro SRB assay, Non-Small Cell Lung Cancer; conditions: for CC50 / GI50: Homo sapiens
Procedure: as §1, §2

ACHN = assay: NCI in vitro SRB assay, Renal Cancer; conditions: for GI50: Homo sapiens
Procedure: as §1, §2

[1] = A549/ATCC, Log10 conc -4.0 Moles/L
[2] = A549/ATCC, Log10 conc -5.0 Moles/L
[3] = A549/ATCC, Log10 conc -6.0 Moles/L
[4] = A549/ATCC, Log10 conc -7.0 Moles/L
[5] = A549/ATCC, Log10 conc -8.0 Moles/L
[6] = HOP-62, Log10 conc -4.0 Moles/L
[7] = HOP-62, Log10 conc -5.0 Moles/L
[8] = HOP-62, Log10 conc -6.0 Moles/L
[9] = HOP-62, Log10 conc -7.0 Moles/L
[10] = HOP-62, Log10 conc -8.0 Moles/L
[11] = NCI-H23, Log10 conc -4.0 Moles/L
[12] = NCI-H23, Log10 conc -5.0 Moles/L
[13] = NCI-H23, Log10 conc -6.0 Moles/L
[14] = NCI-H23, Log10 conc -7.0 Moles/L
[15] = NCI-H23, Log10 conc -8.0 Moles/L
[16] = NCI-H460, Log10 conc -4.0 Moles/L
[17] = NCI-H460, Log10 conc -5.0 Moles/L
[18] = NCI-H460, Log10 conc -6.0 Moles/L
[19] = NCI-H460, Log10 conc -7.0 Moles/L
[20] = NCI-H460, Log10 conc -8.0 Moles/L
[21] = NCI-H522, Log10 conc -4.0 Moles/L
[22] = NCI-H522, Log10 conc -5.0 Moles/L
[23] = NCI-H522, Log10 conc -6.0 Moles/L
[24] = NCI-H522, Log10 conc -7.0 Moles/L
[25] = NCI-H522, Log10 conc -8.0 Moles/L

CCCC1(CCC)CCC2(CCN(CCCN(CC)CC)C2)CC1.O=C(O)/C=C\C(=O)O.O=C(O)/C=C\C(=O)O [Compound 1, N,N,-diethyl-8,8-dipropyl-2-azaspiro[4,5]decane-2-propanamine dimaleate]
inhibition at 5 µM (CaCo-2 cells; 5 μM, read-out: % Inhibition of Proliferation at 5 μM Compound): 85% | IC50 (CaCo-2 cells): ~2500 nM | Log10 TGI (A549/ATCC; A549/ATCC): −5.48 | TGI (A549/ATCC; A549/ATCC): 3330 nM | Mean Optical Densities (A549/ATCC; [1]): 0.056 | Percent Growth (A549/ATCC; [1]): −78% | Mean Optical Densities (A549/ATCC; [2]): 0.070 | Percent Growth (A549/ATCC; [2]): −73% | Mean Optical Densities (A549/ATCC; [3]): 1.126 | Percent Growth (A549/ATCC; [3]): 80% | Mean Optical Densities (A549/ATCC; [4]): 1.307 | Percent Growth (A549/ATCC; [4]): 96% | Mean Optical Densities (A549/ATCC; [5]): 1.277 | Percent Growth (A549/ATCC; [5]): 94% | CC50 (A549/ATCC; A549, read-out: LC50): 7080 nM | CC50 (A549/ATCC; A549, read-out: Log10 LC50 (converted)): 7080 nM | GI50 (A549/ATCC; A549/ATCC, read-out: GI50): 1570 nM | GI50 (A549/ATCC; A549/ATCC, read-out: Log10 GI50 (converted)): 1580 nM | Log10 TGI (HOP-62; HOP-62): −5.54 | TGI (HOP-62; HOP-62): 2910 nM | Mean Optical Densities (HOP-62; [6]): 0.090 | Percent Growth (HOP-62; [6]): −79% | Mean Optical Densities (HOP-62; [7]): 0.056 | Percent Growth (HOP-62; [7]): −87% | Mean Optical Densities (HOP-62; [8]): 0.693 | Percent Growth (HOP-62; [8]): 75% | Mean Optical Densities (HOP-62; [9]): 0.757 | Percent Growth (HOP-62; [9]): 93% | Mean Optical Densities (HOP-62; [10]): 0.711 | Percent Growth (HOP-62; [10]): 80% | CC50 (HOP-62; HOP-62, read-out: LC50): 5930 nM | CC50 (HOP-62; HOP-62, read-out: Log10 LC50 (converted)): 5890 nM | GI50 (HOP-62; HOP-62, read-out: GI50): 1430 nM | GI50 (HOP-62; HOP-62, read-out: Log10 GI50 (converted)): 1450 nM | CC50 (NCI-H23; NCI-H23, read-out: LC50): 6320 nM | CC50 (NCI-H23; NCI-H23, read-out: Log10 LC50 (converted)): 6310 nM | GI50 (NCI-H23; NCI-H23, read-out: GI50): 1960 nM | GI50 (NCI-H23; NCI-H23, read-out: Log10 GI50 (converted)): 1950 nM | Log10 TGI (NCI-H23; NCI-H23): −5.45 | TGI (NCI-H23; NCI-H23): 3520 nM | Mean Optical Densities (NCI-H23; [11]): 0.030 | Percent Growth (NCI-H23; [11]): −92% | Mean Optical Densities (NCI-H23; [12]): 0.040 | Percent Growth (NCI-H23; [12]): −89% | Mean Optical Densities (NCI-H23; [13]): 0.822 | Percent Growth (NCI-H23; [13]): 107% | Mean Optical Densities (NCI-H23; [14]): 0.814 | Percent Growth (NCI-H23; [14]): 105% | Mean Optical Densities (NCI-H23; [15]): 0.728 | Percent Growth (NCI-H23; [15]): 85% | CC50 (NCI-H460; NCI-H460, read-out: LC50): 5080 nM | CC50 (NCI-H460; NCI-H460, read-out: Log10 LC50 (converted)): 5130 nM | GI50 (NCI-H460; NCI-H460, read-out: GI50): 1310 nM | GI50 (NCI-H460; NCI-H460, read-out: Log10 GI50 (converted)): 1320 nM | Log10 TGI (NCI-H460; NCI-H460): −5.59 | TGI (NCI-H460; NCI-H460): 2580 nM | Mean Optical Densities (NCI-H460; [16]): 0.015 | Percent Growth (NCI-H460; [16]): −90% | Mean Optical Densities (NCI-H460; [17]): −0.001 | Percent Growth (NCI-H460; [17]): −100% | Mean Optical Densities (NCI-H460; [18]): 1.075 | Percent Growth (NCI-H460; [18]): 70% | Mean Optical Densities (NCI-H460; [19]): 1.278 | Percent Growth (NCI-H460; [19]): 85% | Mean Optical Densities (NCI-H460; [20]): 1.403 | Percent Growth (NCI-H460; [20]): 95% | CC50 (NCI-H522; NCI-H522, read-out: LC50): > 100000 nM | CC50 (NCI-H522; NCI-H522, read-out: Log10 LC50 (converted)): > 100000 nM | GI50 (NCI-H522; NCI-H522, read-out: GI50): 1180 nM | GI50 (NCI-H522; NCI-H522, read-out: Log10 GI50 (converted)): 1170 nM | Log10 TGI (NCI-H522; NCI-H522): −5.22 | TGI (NCI-H522; NCI-H522): 6050 nM | Mean Optical Densities (NCI-H522; [21]): 0.099 | Percent Growth (NCI-H522; [21]): −7% | Mean Optical Densities (NCI-H522; [22]): 0.091 | Percent Growth (NCI-H522; [22]): −15% | Mean Optical Densities (NCI-H522; [23]): 0.347 | Percent Growth (NCI-H522; [23]): 55% | Mean Optical Densities (NCI-H522; [24]): 0.531 | Percent Growth (NCI-H522; [24]): 97% | Mean Optical Densities (NCI-H522; [25]): 0.518 | Percent Growth (NCI-H522; [25]): 94% | Log10 TGI (ACHN): −5.55 | TGI (ACHN): 2810 nM | GI50 (ACHN; read-out: GI50): 1490 nM | GI50 (ACHN; read-out: Log10 GI50 (converted)): 1480 nM | Mean Optical Densities (ACHN; Log10 conc -4.0 Moles/L): −0.041 | Percent Growth (ACHN; Log10 conc -4.0 Moles/L): −100% | Mean Optical Densities (ACHN; Log10 conc -5.0 Moles/L): −0.031 | Percent Growth (ACHN; Log10 conc -5.0 Moles/L): −100% | Mean Optical Densities (ACHN; Log10 conc -6.0 Moles/L): 0.705 | Percent Growth (ACHN; Log10 conc -6.0 Moles/L): 81% | Mean Optical Densities (ACHN; Log10 conc -7.0 Moles/L): 0.711 | Percent Growth (ACHN; Log10 conc -7.0 Moles/L): 83% | Mean Optical Densities (ACHN; Log10 conc -8.0 Moles/L): 0.721 | Percent Growth (ACHN; Log10 conc -8.0 Moles/L): 85%
